Values of other authors as cited in US12285459B2, “Saposin-A derived peptides and uses thereof” (CHILDREN'S MEDICAL CENTER CORPORATION, priority 2011, dated 2025).

System: VEGF
Conditions: cited from earlier work

In the case of CN(C)c1ccc(/C=C2\C(=O)Nc3ccccc32)cc1 [SU 4312], the vessel formation is listed as “blocked”.
